This passage reports EC50 results from patent US9540371B2, “Substituted quinazolin-4(3H)-ones, pyrido[3,4-d]pyrimidin-4(3H)-ones, pyrido[3,2-d]pyrimidin-4(3H)-ones and pyrido[2,3-d]pyrimidin-4(3H)-ones as positive allosteric modulators of muscarinic acetycholine receptor M1” (Vanderbilt University, priority 2013, dated 2017).

A value given as a limit tells only on which side of the number the result lay.

The target in this assay is T1, mAChR M1 (UniProt P11229).
T1 sequence (P11229 1-460): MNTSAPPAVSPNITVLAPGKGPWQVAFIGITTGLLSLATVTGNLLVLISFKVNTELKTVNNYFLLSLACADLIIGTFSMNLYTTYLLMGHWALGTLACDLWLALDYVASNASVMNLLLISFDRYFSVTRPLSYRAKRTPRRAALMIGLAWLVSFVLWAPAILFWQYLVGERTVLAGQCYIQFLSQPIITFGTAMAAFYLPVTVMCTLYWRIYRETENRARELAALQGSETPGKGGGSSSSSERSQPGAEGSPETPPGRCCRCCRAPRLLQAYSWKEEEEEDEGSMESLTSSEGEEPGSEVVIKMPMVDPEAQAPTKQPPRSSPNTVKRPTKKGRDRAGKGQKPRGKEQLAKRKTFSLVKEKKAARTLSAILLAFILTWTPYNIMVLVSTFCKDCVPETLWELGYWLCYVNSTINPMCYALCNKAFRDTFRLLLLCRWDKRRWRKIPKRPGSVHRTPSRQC
Kind of assay: mAChR M1 cell-based functional assay (calcium mobilization, PAM mode). Conditions: calcium flux in CHO-K1 cells expressing mAChR M1; increase in the EC20 acetylcholine response; >10 μM estimated where no plateau but >20% increase in ACh response. The source says:
Chinese hamster ovary (CHO-K1) cells stably expressing rat (r)M1 were purchased from the American Type Culture Collection and cultured according to their indicated protocol. CHO cells stably expressing human (h)M2, hM3, and hM5 were described previously (Levey, A. I., et al., J Neurosci. 1991, 11, 3218-3226.); hM1 and hM4 cDNAs were purchased from Missouri S&T cDNA Resource; rM4 cDNA was provided by T. I. Bonner (National Institutes of Health, Bethesda, Md.). rM2 and rM3 were cloned from a rat brain cDNA library and sequence verified. hM1, rM2, rM3, hM4, and rM4 cDNAs were used to stably transfect CHO-K1 cells purchased from the American Type Culture Collection using Lipofectamine® 2000 (Thermo Fisher Scientific Inc.). To make stable rM2, hM2, hM4, and rM4 cell lines for use in calcium mobilization assays, these cells also were stably transfected with a chimeric G-protein (Gqi5) (provided by B. R. Conklin, University of California, San Francisco) using Lipofectamine® 2000. rM1, hM1, rM3, hM3, rM5, and hM5 cells were grown in Ham's F-12 medium containing 10% heat-inactivated fetal bovine serum (FBS), 20 mM HEPES, and 50 μg/mL G418 sulfate. rM2-Gqi5, hM2-Gqi5, and hM4-Gqi5 cells were grown in the same medium also containing 500 μg/mL hygromycin B. Stable rM4-Gqi5 cells were grown in DMEM containing 10% heat-inactivated FBS, 20 mM HEPES, 400 μg/mL G418 sulfate, and 500 μg/mL hygromycin B.
For high throughput measurement of agonist-evoked increases in intracellular calcium, CHO-K1 cells stably expressing muscarinic receptors were plated in growth medium lacking G418 and hygromycin B at 15,000 cells/20 μL/well in Greiner 384-well black-walled, tissue culture (TC)-treated, clear-bottom plates (VWR). Cells were incubated overnight at 37° C. and 5% CO2. The next day, cells were washed using an ELX 405 (BioTek) with four washes (80 μL) of assay buffer then aspirated to 20 μL. Next, 20 μL of 16 μM Fluo-4/acetoxymethyl ester (Invitrogen, Carlsbad, Calif.) prepared as a 2.3 mM stock in DMSO and mixed in a 1:1 ratio with 10% (w/v) Pluronic F-127 and diluted in assay buffer was added to the wells and the cell plates were incubated for 50 min at 37° C. and 5% CO2. Dye was removed by washing with the ELX 405 (four 80 μL washes of assay buffer) then aspirated to 20 μL. Compound master plates were formatted in an 11 point CRC format (1:3 dilutions) in 100% DMSO with a starting concentration of 10 mM using the BRAVO liquid handler (Agilent). Test compound CRCs were then transferred to daughter plates (240 nL) using the Echo acoustic plate reformatter (Labcyte, Sunnyvale, Calif.) and then diluted into assay buffer (40 μL) to a 2× stock using a Thermo Fisher Combi (Thermo Fisher Scientific, Waltham, Mass.).
Calcium flux was measured using the Functional Drug Screening System (FDSS) 6000 (Hamamatsu Corporation, Tokyo, Japan) as an increase in the fluorescent static ratio. Compounds were applied to cells (20 μL, 2X) using the automated system of the FDSS 6000 at 4 s into the 300 s protocol and the data were collected at 1 Hz. At 144 s into the 300 s protocol, 10 μL of an EC20 concentration of the muscarinic receptor agonist acetylcholine was added (5X), followed by the addition of […] concentration of acetylcholine at the 230 s time point (5X). Agonist activity was analyzed as a concentration—dependent increase in calcium mobilization upon compound addition. Positive allosteric modulator activity was analyzed as a concentration-dependent increase in the EC20 acetylcholine response. Antagonist activity was analyzed as a concentration-dependent decrease in the EC80 acetylcholine response. Concentration-response curves were generated using a four -parameter logistical equation in XLFit curve fitting software (IDBS, Bridgewater, N.J.) for Excel (Microsoft, Redmond, Wash.) or Prism (GraphPad Software, Inc., San Diego, Calif.).
The calcium mobilization assay was also used to determine “efficacy”. […]

On to `O=c1c2ccccc2ncn1Cc1ccc(-n2cccn2)cc1` [Compound B2], for which the concentration for a half-maximal effect (EC50) was over 10 µM.

Take `Cn1cc(-c2ccc(Cn3cnc4ccccc4c3=O)cc2)cn1` [Compound B3]: the EC50 is over 10 µM.

In the case of `O=c1c2cccnc2ncn1Cc1ccc(-n2cccn2)cc1` [Compound B5], the EC50 was over 10 µM.

Regarding `Cn1cc(-c2ccc(Cn3cnc4ncccc4c3=O)cc2)cn1` [Compound B6], the EC50 was over 10 µM.

As to `Cn1cc2c(-c3cc(F)c(Cn4cnc5cnccc5c4=O)c(F)c3)cccc2n1` [Compound B7, 3-(2,6-Difluoro-4-(2-Methyl-2H-Indazol-4-yl)Benzyl)Pyrido[3,4-D]Pyrimidin-4(3H)-one], the EC50 was 0.6 µM.

For the compound `O=c1c2ccncc2ncn1Cc1ccc(-n2cccn2)cc1` [Compound B8], the EC50 was over 10 µM.

As for `Cn1cc(-c2ccc(Cn3cnc4cnccc4c3=O)cc2)cn1` [Compound B9], the EC50 was 4.9 µM.

Turning to `O=c1c2ncccc2ncn1Cc1ccc(-n2cccn2)cc1` [Compound B10], the EC50 was over 10 µM.

Take `Cn1cc(-c2ccc(Cn3cnc4cccnc4c3=O)cc2)cn1` [Compound B11]: the EC50 is over 10 µM.

On to `Cn1cc2c(-c3cc(F)c(Cn4cnc5cccnc5c4=O)c(F)c3)cccc2n1` [Compound B12], for which the concentration giving a half-maximal response (EC50) is 3.6 µM.
